Measurements from patent US7265103B2, “Substituted amino isoxazoline derivatives and their use as anti-depressants” (Janssen Pharmaceutica NV., priority 2002, dated 2007).

Columns and labels:
hα2C receptor = biological target: T1, hα2C receptor (Homo sapiens, UniProt P18825); experiment: Radioligand binding experiment for α2C-adrenergic receptor ([3H]-raulwolscine); conditions: CHO cell membranes with human α2C receptor, [3H]raulwolscine 1 nM; read-out: pIC50 α2C (converted)
T1 construct: expressed in transfected cells; host or cells: CHO cells
T1 sequence (P18825 1-462): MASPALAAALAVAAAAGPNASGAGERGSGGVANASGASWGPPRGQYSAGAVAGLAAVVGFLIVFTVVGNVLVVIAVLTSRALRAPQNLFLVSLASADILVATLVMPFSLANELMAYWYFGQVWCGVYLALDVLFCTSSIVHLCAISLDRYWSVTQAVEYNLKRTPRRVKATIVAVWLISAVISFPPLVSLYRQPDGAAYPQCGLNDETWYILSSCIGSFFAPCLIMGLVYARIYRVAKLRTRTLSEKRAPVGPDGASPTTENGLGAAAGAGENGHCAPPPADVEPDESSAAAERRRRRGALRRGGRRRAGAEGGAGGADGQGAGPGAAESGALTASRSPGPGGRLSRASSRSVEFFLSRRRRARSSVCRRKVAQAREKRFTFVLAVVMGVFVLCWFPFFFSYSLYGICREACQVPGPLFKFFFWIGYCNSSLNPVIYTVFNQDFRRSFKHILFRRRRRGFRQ
Method: (§1) The interaction of the compounds of Formula (I) with hα2-receptors and h5-HT-transporters was assessed in in vitro radioligand binding experiments. In general, a low concentration of a radioligand with a high binding affinity for a particular receptor or transporter is incubated with a sample of a tissue preparation enriched in a particular receptor or transporter or with a preparation of cells expressing cloned human receptors in a buffered medium. During the incubation, the radioligand binds to the receptor or transporter. When equilibrium of binding is reached, the receptor bound radioactivity is separated from the non-bound radioactivity, and the receptor- or transporter-bound activity is counted. The interaction of the test compounds with the receptor is assessed in competition binding experiments. Various concentrations of the test compound are added to the incubation mixture containing the receptor- or transporter preparation and the radioligand. The test compound in proportion to its binding affinity and its concentration inhibits binding of the radioligand. The radioligand used for hα2A, hα2B and hα2C receptor binding was [^3H]-raulwolscine and for the h5-HT transporter was [^3H]paroxetine.
(§2) CHO cells, stabile transfected with human adrenergic-α2A-, -α2B or α2C receptor cDNA, were cultured in Dulbecco's Modified Eagle's Medium (DMEM)/Nutrient mixture Ham's F12 (ratio 1:1)(Gibco, Gent-Belgium) supplemented with 10% heat inactivated fetal calf serum (Life Technologies, Merelbeke-Belgium) and antibiotics (100 IU/ml penicillin G, 100 μg/ml streptomycin sulphate, 110 μg/ml pyruvic acid and 100 μg/ml L-glutamine). One day before collection, cells were induced with 5 mM sodiumbutyrate. Upon 80-90% of confluence, cells were scraped in phosphate buffered saline without Ca^2+ and Mg^2+ and collected by centrifugation at 1500×g for 10 min. The cells were homogenised in Tris-HCl 50 mM using an Ultraturrax homogenizer and centrifuged for 10 min at 23,500×g. The pellet was washed once by resuspension and rehomogenization and the final pellet was resuspended in Tris-HCl, divided in 1 ml aliquots and stored at −70° C.
(§3) Membranes were thawed and re-homogenized in incubation buffer (glycylglycine 25 mM, pH 8.0). In a total volume of 500 μl, 2-10 μg protein was incubated with [^3H]raulwolscine (NET-722) (New England Nuclear, USA) (1 nM final concentration) with or without competitor for 60 min at 25° C. followed by rapid filtration over GF/B filter using a Filtermatel 96 harvester (Packard, Meriden, Conn.). Filters were rinsed extensively with ice-cold rinsing buffer (Tris-HCl 50 mM pH 7.4). Filter-bound radioactivity was determined by scintillation counting in a Topcount (Packard, Meriden, Conn.) and results were expressed as counts per minute (cpm). Non-specific binding was determined in the presence of 1 μM oxymetazoline for hα2A- and hα2B receptors and 1 μM spiroxatrine for hα2C receptors.
(§4) Data from assays in the presence of compound were calculated as a percentage of total binding measured in the absence of test compound. Inhibition curves, plotting percent of total binding versus the log value of the concentration of the test compound, were automatically generated, and sigmoidal inhibition curves were fitted using non-linear regression. The pIC50 values of test compounds were derived from individual curves.

h5-HT transporter = biological target: T2, h5-HT transporter (Homo sapiens, UniProt P31645); experiment: Radioligand binding experiment for 5-HT transporter ([3H]paroxetine); conditions: human platelet membranes, [3H]paroxetine 0.5 nM
T2 construct: Human platelet membranes (Oceanix Biosciences Corporation, Hanover, Md., USA) were thawed; tissue Oceanix Biosciences Corporation; host or cells: human platelet membranes
T2 sequence (P31645 whole entry): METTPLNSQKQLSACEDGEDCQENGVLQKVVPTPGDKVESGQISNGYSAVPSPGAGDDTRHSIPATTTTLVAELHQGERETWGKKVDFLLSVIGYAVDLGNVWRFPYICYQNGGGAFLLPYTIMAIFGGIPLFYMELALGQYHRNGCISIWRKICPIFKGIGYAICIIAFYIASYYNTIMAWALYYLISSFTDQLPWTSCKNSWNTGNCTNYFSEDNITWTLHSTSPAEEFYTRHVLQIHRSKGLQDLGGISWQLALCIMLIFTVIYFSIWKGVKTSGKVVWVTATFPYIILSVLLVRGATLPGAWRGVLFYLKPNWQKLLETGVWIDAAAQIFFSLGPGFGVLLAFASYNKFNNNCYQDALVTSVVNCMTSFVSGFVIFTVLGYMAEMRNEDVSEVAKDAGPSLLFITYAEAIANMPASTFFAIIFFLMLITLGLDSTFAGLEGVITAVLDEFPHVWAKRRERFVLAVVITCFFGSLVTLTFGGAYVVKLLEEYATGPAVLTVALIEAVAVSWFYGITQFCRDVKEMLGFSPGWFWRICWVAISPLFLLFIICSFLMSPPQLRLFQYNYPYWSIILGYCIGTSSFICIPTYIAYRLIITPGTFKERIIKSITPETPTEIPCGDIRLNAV
Method: as §1
Human platelet membranes (Oceanix Biosciences Corporation, Hanover, Md., USA) were thawed, diluted in buffer (Tris-HCl 50 mM, 120 mM NaCl and 5 mM KCl) and quickly (max 3 s) homogenised with an Ultraturrax homogenizer. In a total volume of 250 μL, 50-100 μg protein was incubated with [^3H]paroxetine (NET-869) (New England Nuclear, USA) (0.5 nM final concentration) with or without competitor for 60 min at 25° C. Incubation was stopped by rapid filtration of the incubation mixture over GF/B filters, pre-wetted with 0.1% polyethyleneamine, using a Filtermatel 96 harvester (Packard, Meriden, Conn.). Filters were rinsed extensively with ice-cold buffer and radioactivity on the filters was counted in a Topcount liquid scintillation counter (Packard, Meriden, Conn.). Data were expressed as cpm. Imipramine (at 1 μM final concentration) was used to determine the non-specific binding.
as §4

hα2A receptor = biological target: T3, hα2A receptor (Homo sapiens, UniProt P08913); experiment: Radioligand binding experiment for α2A-adrenergic receptor ([3H]-raulwolscine); conditions: CHO cell membranes with human α2A receptor, [3H]raulwolscine 1 nM; read-out: pIC50 α2A (converted)
T3 construct: expressed in transfected cells; host or cells: CHO cells
T3 sequence (P08913 1-465): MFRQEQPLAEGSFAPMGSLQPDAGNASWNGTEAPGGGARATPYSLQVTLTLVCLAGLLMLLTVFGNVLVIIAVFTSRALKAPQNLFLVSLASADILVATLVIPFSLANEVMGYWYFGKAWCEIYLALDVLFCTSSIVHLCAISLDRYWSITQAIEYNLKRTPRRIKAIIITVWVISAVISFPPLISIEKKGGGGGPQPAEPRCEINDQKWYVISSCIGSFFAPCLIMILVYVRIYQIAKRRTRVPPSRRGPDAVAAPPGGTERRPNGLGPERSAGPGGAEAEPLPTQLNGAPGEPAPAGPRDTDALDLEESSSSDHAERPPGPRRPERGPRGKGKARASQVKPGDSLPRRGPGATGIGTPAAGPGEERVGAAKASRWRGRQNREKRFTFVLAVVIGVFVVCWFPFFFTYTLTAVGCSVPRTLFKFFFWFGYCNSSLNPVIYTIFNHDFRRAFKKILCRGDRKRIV
Method: as §1, §2, §3, §4

| Compound | IC50 (hα2C receptor) | IC50 (h5-HT transporter) | IC50 (hα2A receptor) |
| --- | --- | --- | --- |
| COc1cc2c(cc1NC(=O)C1CC1)OCC1C2=NOC1CN1CCN(CC(C)=Cc2ccccc2)CC1 (stereo not drawn) [Compound 52] | 0.631 nM | 20 nM | 3.98 nM |
| CC(=Cc1ccccc1)CN1CCN(CC2ON=C3c4ccc(NC(=O)c5ccccc5)cc4OCC32)CC1 (stereo not drawn) [Compound 55] | 3.16 nM | 25.1 nM | 5.01 nM |
| C/C(=C\c1ccccc1)CN1CCN(CC2ON=C3c4ccc(NC(=O)[C@@H]5CCCN5)cc4OCC32)CC1 (stereo partly drawn) [Compound 57] | 0.631 nM | 25.1 nM | 5.01 nM |
| CC(=Cc1ccc(F)cc1)CN1CCN(CC2ON=C3c4ccc(NC(=O)OC(C)(C)C)cc4OCC32)CC1 (stereo not drawn) [Compound 58] | 31.6 nM | 31.6 nM | 63.1 nM |
| CCNC(=O)N(C(=O)NCC)c1ccc2c(c1)OCC1C2=NOC1CN1CCN(CC(C)=Cc2ccc(F)cc2)CC1 (stereo not drawn) [Compound 60] | 398 nM | 6310 nM | 3160 nM |
| CC(=Cc1ccc(F)cc1)CN1CCN(CC2ON=C3c4ccc(N5CCC5=O)cc4OCC32)CC1 (stereo not drawn) [Compound 69] | 1.26 nM | 20 nM | 3.16 nM |
| CC(=Cc1ccc(F)cc1)CN1CCN(CC2ON=C3c4ccc(N5CCc6ccccc6C5)cc4OCC32)CC1 (stereo not drawn) [Compound 73] | 5.01 nM | 63.1 nM | 50.1 nM |
| COc1cc2c(cc1N1CCOCC1)OCC1C2=NOC1CN1CCN(CC(C)=Cc2ccc(F)cc2)CC1 (stereo not drawn) [Compound 85] | 3.16 nM | 63.1 nM | 10 nM |
| CNc1ccc2c(c1)OCC1C2=NOC1CN1CCN(CC(C)=Cc2ccccc2)CC1 (stereo not drawn) [Compound 87] | 3.16 nM | 50.1 nM | 2.51 nM |
| CNc1cc2c(cc1OC)C1=NOC(CN3CCN(CC(C)=Cc4ccccc4)CC3)C1CO2 (stereo not drawn) [Compound 88] | 1.26 nM | 20 nM | 5.01 nM |
| CCC(CC)Nc1cc2c(cc1OC)C1=NOC(CN3CCN(CC(C)=Cc4ccc(F)cc4)CC3)C1CO2 (stereo not drawn) [Compound 98] | 100 nM | 251 nM | 126 nM |
| CCC(C)Nc1cc2c(cc1OC)C1=NOC(CN3CCN(CC(C)=Cc4ccc(F)cc4)CC3)C1CO2 (stereo not drawn) [Compound 99] | 50.1 nM | 158 nM | 50.1 nM |
| COc1cc2c(cc1N1CCCC1C)OCC1C2=NOC1CN1CCN(CC(C)=Cc2ccc(F)cc2)CC1 (stereo not drawn) [Compound 101] | 31.6 nM | 158 nM | 39.8 nM |
| COc1cc2c(cc1N1CCC1)OCC1C2=NOC1CN1CCN(CC(C)=Cc2ccc(F)cc2)CC1 (stereo not drawn) [Compound 102] | 15.8 nM | 50.1 nM | 20 nM |
| COc1cc2c(cc1N1CCC(C)CC1)OCC1C2=NOC1CN1CCN(CC(C)=Cc2ccc(F)cc2)CC1 (stereo not drawn) [Compound 103] | 63.1 nM | 126 nM | 79.4 nM |
| CCC(C)CNc1cc2c(cc1OC)C1=NOC(CN3CCN(CC(C)=Cc4ccc(F)cc4)CC3)C1CO2 (stereo not drawn) [Compound 104] | 126 nM | 316 nM | 126 nM |
| CCNc1cc2c(cc1OC)C1=NOC(CN3CCN(CC(C)=Cc4ccc(F)cc4)CC3)C1CO2 (stereo not drawn) [Compound 105] | 31.6 nM | 20 nM | 50.1 nM |
| C=CC(=O)Nc1cc2c(cc1OC)C1=NOC(CN3CCN(CC(C)=Cc4ccc(F)cc4)CC3)C1CO2 (stereo not drawn) [Compound 106] | 12.6 nM | 31.6 nM | 6.31 nM |
| COc1cc2c(cc1N1CCC1=O)OCC1C2=NOC1CN1CCN(CC(C)=Cc2ccc(F)cc2)CC1 (stereo not drawn) [Compound 107] | 10 nM | 50.1 nM | 7.94 nM |
| CC(=Cc1ccc(F)cc1)CN1CCN(CC2ON=C3c4ccc(N(C)CCOC(=O)C5CCC5)cc4OCC32)CC1 (stereo not drawn) [Compound 108] | 50.1 nM | 79.4 nM | 200 nM |
| CC(=Cc1ccc(F)cc1)CN1CCN(CC2ON=C3c4ccc(N(C)CCOC(=O)C5CC5)cc4OCC32)CC1 (stereo not drawn) [Compound 109] | 31.6 nM | 39.8 nM | 158 nM |

Molecules with a lower IC50 (h5-HT transporter), results first:

| IC50 (hα2C receptor) | IC50 (h5-HT transporter) | IC50 (hα2A receptor) | Compound |
| --- | --- | --- | --- |
| 0.631 nM | 10 nM | 3.98 nM | COc1cc2c(cc1NC(=O)C1CC1)OCC1C2=NOC1CN1CCN(CC(C)=Cc2cccc(F)c2)CC1 (stereo not drawn) [Compound 53] |
| 0.501 nM | 12.6 nM | 3.16 nM | C/C(=C\c1ccccc1)CN1CCN(CC2ON=C3c4ccc(NC(=O)[C@H]5CCCN5)cc4OCC32)CC1 (stereo partly drawn) [Compound 56] |
| 1.26 nM | 10 nM | 7.94 nM | CCNC(=O)Nc1ccc2c(c1)OCC1C2=NOC1CN1CCN(CC(C)=Cc2ccccc2)CC1 (stereo not drawn) [Compound 59] |
| 1.26 nM | 12.6 nM | 2 nM | CC(=Cc1ccccc1)CN1CCN(CC2ON=C3c4ccc(NC(=O)c5cccnc5)cc4OCC32)CC1 (stereo not drawn) [Compound 67] |
| 0.794 nM | 3.16 nM | 3.98 nM | COc1cc2c(cc1N1CCN(C)CC1)OCC1C2=NOC1CN1CCN(CC(C)=Cc2cccc(F)c2)CC1 (stereo not drawn) [Compound 76] |
| 2.51 nM | 15.8 nM | 7.94 nM | COc1cc2c(cc1N1CCOCC1)OCC1C2=NOC1CN1CCN(CC(C)=Cc2cccc(F)c2)CC1 (stereo not drawn) [Compound 83] |
| 1.58 nM | 5.01 nM | 6.31 nM | COc1cc2c(cc1N)OCC1C2=NOC1CN1CCN(CC(C)=Cc2cccc(F)c2)CC1 (stereo not drawn) [Compound 86] |
| 6.31 nM | 15.8 nM | 31.6 nM | COc1cc2c(cc1NCCN)OCC1C2=NOC1CN1CCN(CC(C)=Cc2ccc(F)cc2)CC1 (stereo not drawn) [Compound 97] |
| 5.01 nM | 10 nM | 10 nM | COc1cc2c(cc1Nc1ccncc1)OCC1C2=NOC1CN1CCN(CC(C)=Cc2ccc(F)cc2)CC1 (stereo not drawn) [Compound 100] |
